The record followed here is patent US20030211942A1, “Aryl sulfonyl amino carbonyl triazole based selective herbicides” (priority 2000, published 2003).

Each structure is given as a SMILES string. Values joined by “and” are separate entries in the source; they are usually repeats but may differ in a detail not shown here. Identical values can stand only once.

What all share (assay): Post-emergence/greenhouse herbicidal test
Common to all, as to assay type: in vivo

For assay [1], the system named is Abutilon theophrasti. As to conditions: post-emergence, about 3 weeks. The source says: (§1) Procarbazone- and flucarbazone-sodium were used as 70 WG formulation. Fenoxaprop-P-ethyl was used in a mixture with mefenpyr-diethyl (75 g of mefenpyr-diethyl/l) as Ralon® Super 69 EW. Cinidon-ethyl and florasulam and iodosufuron in a mixture with mefenpyr-diethyl were used in the form of the finished formulations Lotus® 200 EC, Primus® 50 SC and Hussar® 5 WG (15% mefenpyr-diethyl), respectively. Amicarbazone was used as 70 WG formulation.
(§2) In pre- and post-emergence experiments, the spray liquor is usually admixed with a surfactant (Renex 36), at a concentration of 0.1%.
(§3) Test plants are grown under controlled conditions (temperature and light).
(§4) Following the spray application, the plant containers are kept in a greenhouse under constant light and temperature conditions.
(§5) After about 3 weeks, the degree of damage to the plants is rated in % damage in comparison to the development of the untreated control.
(§6) 0% =no damage (like untreated control)
(§7) 100% =total destruction/damage

In assay [2] the test system is Avena fatua.
Text: as §1, §2, §3, §4, §5, §6, §7

The subject of assay [3] is Cassia tora.
Text: as §1, §2, §3, §4, §5, §6, §7

The subject of assay [4] is Eriochloa villosa. As to conditions: post-emergence, about 3 weeks.
Text: as §1, §2, §3, §4, §5, §6, §7

Assay [5] concerns Matricaria inodora. As to conditions: application rate 30 g ai/ha.
Text: as §1, §2, §3, §4, §5, §6, §7

Assay [6] deals with Stellaria media. The following applies: post-emergence, about 3 weeks.
Text: as §1, §2, §3, §4, §5, §6, §7

For assay [7], the system named is Viola arvensis. The following applies: post-emergence, about 3 weeks.
Text: as §1, §2, §3, §4, §5, §6, §7

In assay [8] the test system is Xanthium strumarium. As to conditions: post-emergence, about 3 weeks.
Text: as §1, §2, §3, §4, §5, §6, §7

Assay [9] has as its system Alopecurus myosuroides. The following applies: post-emergence, about 3 weeks.
Text: as §1, §2, §3, §4, §5, §6, §7

In assay [10] the test system is Bromus secalinus.
Text: as §1, §2, §3, §4, §5, §6, §7

For assay [11], the system named is Cyperus esculentus. The following applies: post-emergence, about 3 weeks.
Text: as §1, §2, §3, §4, §5, §6, §7

The test system of assay [12] is Echinochloa crus-galli.
Text: as §1, §2, §3, §4, §5, §6, §7

The test system of assay [13] is Lolium perenne. As to conditions: post-emergence, about 3 weeks.
Text: as §1, §2, §3, §4, §5, §6, §7

For assay [14], the system named is Amaranthus retroflexus. As to conditions: post-emergence, about 3 weeks.
Text: as §1, §2, §3, §4, §5, §6, §7

Assay [15] concerns Chenopodium album. As to conditions: post-emergence, about 3 weeks.
Text: as §1, §2, §3, §4, §5, §6, §7

Assay [16] deals with Datura strumarium. The following applies: post-emergence, about 3 weeks.
Text: as §1, §2, §3, §4, §5, §6, §7

The test system of assay [17] is Galium aparine. The following applies: post-emergence, about 3 weeks.
Text: as §1, §2, §3, §4, §5, §6, §7

The test system of assay [18] is Ipomoea hederacea. As to conditions: post-emergence, about 3 weeks.
Text: as §1, §2, §3, §4, §5, §6, §7

Assay [19] has as its system Polygonum convolvolus.
Text: as §1, §2, §3, §4, §5, §6, §7

In assay [20] the test system is Solanum nigrum. The following applies: post-emergence, about 3 weeks.
Text: as §1, §2, §3, §4, §5, §6, §7

Assay [21] concerns Setaria viridis.
Setting [22] is: 30 g of ai/ha, post-emergence, about 3 weeks.
Setting [23] is: 8 g of ai/ha, post-emergence, about 3 weeks.
The mark [24] stands for this setting: 15 g of ai/ha, post-emergence, about 3 weeks.
Where [25] appears, read: 60 g of ai/ha, post-emergence, about 3 weeks.
Setting [26] is: 125 g of ai/ha, post-emergence, about 3 weeks.
Setting [27] is: application rate 2 g ai/ha, iodosulfuron tested as Hussar (iodosulfuron 5% & mefenpyr 15%).
Setting [28] is: application rate 4 g ai/ha, iodosulfuron tested as Hussar (iodosulfuron 5% & mefenpyr 15%).
Where [29] appears, read: application rate 8 g ai/ha, iodosulfuron tested as Hussar (iodosulfuron 5% & mefenpyr 15%).

On to `CC(C)c1nn(C(=O)NC(C)(C)C)c(=O)n1N` [Amicarbazone, 4-amino-N-(1,1-dimethyl-ethyl)-4,5-dihydro-3-(1-methyl-ethyl)-5-oxo-1H-1,2,4-triazole-1-carboxamide], for which the Abutilon theophrasti observed in assay [1] (30 g of ai/ha) was found to be 80%. In addition, in assay [2] (application rate 30 g ai/ha), the Avena fatua observed is 0. This compound returned a Cassia tora observed in assay [3] (setting [22]) of 40%. Further, the Eriochloa villosa observed in [4] (125 g of ai/ha) was 70%. For the same compound, the Matricaria inodora observed in assay [5] is 60. In assay [6] (60 g of ai/ha), the Stellaria media observed is recorded as 80%. The same compound yielded a Viola arvensis observed in [7] (30 g of ai/ha) of 70%. The Xanthium strumarium observed in assay [8] (30 g of ai/ha) amounted to 80%.
As to `CCOC(=O)C(Cl)=Cc1cc(N2C(=O)C3=C(CCCC3)C2=O)ccc1Cl` [Cinidon-ethyl, ethyl 2-chloro-3-[2-chloro-5-(1,3,4,5,6,7-hexahydro-1,3-dioxo-2H-isoindol-2-yl)-phenyl]-2-propanoate], the Alopecurus myosuroides observed in [9] (8 g of ai/ha) and in [9] (15 g of ai/ha) was 0% each time. Also, the results for the Avena fatua observed in assay [2] (setting [23]) and in assay [2] (setting [24]) were 0% and 10%, respectively. For the same compound, the Bromus secalinus observed in assay [10] (setting [23]) stood at 0%; in assay [10] (setting [24]) it was 20%. Also, the Cassia tora observed in assay [3] (setting [24]) is 95%. The results for the Cyperus esculentus observed in assay [11] (8 g of ai/ha) and in assay [11] (15 g of ai/ha) were 0% and 20%, respectively. The Echinochloa crus-galli observed in [12] (setting [23]) and in assay [12] (setting [24]) was 0% each time. The compound further showed an Eriochloa villosa observed in assay [4] (15 g of ai/ha) of 30%. Further, the Lolium perenne observed in assay [13] (8 g of ai/ha) amounted to 0%. For the same compound, the Viola arvensis observed is 0% in assay [7] (8 g of ai/ha) and 30% in assay [7] (15 g of ai/ha).
`CCOC(=O)[C@@H](C)Oc1ccc(Oc2nc3ccc(Cl)cc3o2)cc1` [Fenoxaprop-P-ethyl, ethyl (R)-2-[4-(6-chloro-benzoxazol-2-yl-oxy)-phenoxy]-propanoate]: the Alopecurus myosuroides observed in assay [9] (15 g of ai/ha) and in [9] (30 g of ai/ha) was 0% in each case. Besides, the Amaranthus retroflexus observed in [14] (30 g of ai/ha) and in assay [14] (60 g of ai/ha) was 0% each time. For the same compound, the Bromus secalinus observed in assay [10] (setting [22]) and in assay [10] (setting [25]) was 0% in each case. The Chenopodium album observed in [15] (30 g of ai/ha) and in assay [15] (60 g of ai/ha) was 0% each time. For the same compound, the Datura strumarium observed in assay [16] (30 g of ai/ha) and in assay [16] (60 g of ai/ha) was 0% each time. The Galium aparine observed in [17] (15 g of ai/ha), in [17] (30 g of ai/ha) and in [17] (60 g of ai/ha) was 0% throughout. The Ipomoea hederacea observed in assay [18] (30 g of ai/ha) and in assay [18] (60 g of ai/ha) was 0% each time. Further, the Lolium perenne observed in assay [13] (30 g of ai/ha) and in assay [13] (60 g of ai/ha) was 0% each time. For the same compound, the Polygonum convolvolus observed in [19] (setting [22]) and in [19] (setting [25]) was 0% throughout. For the same compound, the Solanum nigrum observed in [20] (15 g of ai/ha), in assay [20] (30 g of ai/ha) and in [20] (60 g of ai/ha) was 0% each time. Further, the Stellaria media observed in [6] (30 g of ai/ha) and in assay [6] (60 g of ai/ha) was 0% each time. Moreover, the Viola arvensis observed in [7] (15 g of ai/ha), in assay [7] (30 g of ai/ha) and in assay [7] (60 g of ai/ha) was 0% each time. Also, the Xanthium strumarium observed in [8] (30 g of ai/ha) and in [8] (60 g of ai/ha) was 0% throughout.
Consider `CC(C)N(C(=O)COc1nnc(C(F)(F)F)s1)c1ccc(F)cc1` [Flufenacet, N-(4-fluorophenyl)-N-isopropyl-2-(5-trifluoromethyl-1,3,4-thiadiazol-2-yl-oxy)-acetamide], for which the Amaranthus retroflexus observed in assay [14] (60 g of ai/ha) and in assay [14] (125 g of ai/ha) was 0% in each case. Also, in assay [2] (setting [26]), the Avena fatua observed is given as 70%. This compound returned a Polygonum convolvolus observed in assay [19] (setting [26]) of 0%.
Consider `COC(=O)c1ccc(I)cc1S(=O)(=O)NC(=O)Nc1nc(C)nc(OC)n1.[Na]` [Iodosufuron, N-(4-methoxy-6-methyl-1,3,5-triazin-2-yl)-N′-(5-iodo-2-methoxycarbonyl-phenylsulphonyl)-urea sodium salt], for which the Avena fatua observed in assay [2] (setting [23]) is listed as 70%; in [2] (Table B-62, application rate 2 g ai/ha, iodosulfuron tested as Hussar (iodosulfuron 5% & mefenpyr 15%)), 10. In addition, the Bromus secalinus observed in [10] (setting [27]), in assay [10] (setting [28]) and in [10] (setting [29]) was 0 throughout. In assay [3] (setting [29]), this compound registered a Cassia tora observed of 80. This compound also returned an Echinochloa crus-galli observed in assay [12] (setting [27]) of 20. Moreover, in [19] (setting [27]), the Polygonum convolvolus observed is 80. For the same compound, the Setaria viridis observed in [21] (setting [28]) was 0.
In the case of `CCCOc1nn(C(=O)NS(=O)(=O)c2ccccc2C(=O)OC)c(=O)n1C` [Procarbazone-sodium, 2-(2-methoxycarbonyl-phenylsulphonylaminocarbonyl)-4-methyl-5-n-propoxy-2,4-dihydro-3H-1,2,4-triazol-3-one], in [1] (60 g of ai/ha), the Abutilon theophrasti observed came out at 60%. In addition, the Alopecurus myosuroides observed in assay [9] (15 g of ai/ha) was 60% and 80%; in assay [9] (30 g of ai/ha), 70% and 80%; in assay [9] (60 g of ai/ha) it was 70% and 90%. The Amaranthus retroflexus observed in [14] (15 g of ai/ha) was 80% and 98%; in assay [14] (30 g of ai/ha), 90% and 98%; in [14] (60 g of ai/ha) it was 98%. In addition, the Avena fatua observed in assay [2] (setting [24]) was 70% and 50% and 80%; in assay [2] (setting [22]) it was 90% and 50%; in assay [2] (setting [25]), 60%. Besides, the Bromus secalinus observed in [10] (setting [24]) was 80% and 70%; in assay [10] (setting [22]), 80%; in [10] (setting [25]) it was 90%; in assay [10] (application rate 15 g ai/ha), 90; in [10] (application rate 30 g ai/ha) it was 90. Besides, the Cassia tora observed in assay [3] (setting [24]) is 50%; in [3] (setting [25]), 30% and 50%. Moreover, the Cyperus esculentus observed in assay [11] (15 g of ai/ha) came to 70%; in assay [11] (30 g of ai/ha) it was 80%. For the same compound, the Echinochloa crus-galli observed in assay [12] (setting [22]) and in assay [12] (setting [25]) was 90% in each case. The same compound yielded an Eriochloa villosa observed in [4] (15 g of ai/ha) of 0%. Further, the Galium aparine observed worked out at 20% in [17] (15 g of ai/ha), 30% in assay [17] (30 g of ai/ha) and 40% in assay [17] (60 g of ai/ha). The Ipomoea hederacea observed in assay [18] (15 g of ai/ha) came out at 60%; in [18] (30 g of ai/ha), 70%; in assay [18] (60 g of ai/ha), 70%. The Lolium perenne observed in assay [13] (15 g of ai/ha) is 0%; in assay [13] (30 g of ai/ha), 30% and 20%; in assay [13] (60 g of ai/ha) it was 50%. Also, the Polygonum convolvolus observed in assay [19] (setting [22]) amounted to 0%; in assay [19] (setting [25]), 0%; in assay [19] (application rate 15 g ai/ha), 0; in assay [19] (application rate 30 g ai/ha) it was 0; in assay [19] (application rate 60 g ai/ha) it was 0. The same compound gave a Solanum nigrum observed in [20] (30 g of ai/ha) of 70%. Moreover, the Stellaria media observed is on record as 50% in [6] (15 g of ai/ha), 60% in assay [6] (30 g of ai/ha) and 70% in assay [6] (60 g of ai/ha). The Viola arvensis observed in assay [7] (30 g of ai/ha) is 50% and 70%; in assay [7] (60 g of ai/ha), 80%. Moreover, the Xanthium strumarium observed is 60% in [8] (15 g of ai/ha); 70% and 60% in assay [8] (30 g of ai/ha); 60% in [8] (60 g of ai/ha). For the same compound, the Setaria viridis observed was 0 in assay [21] (application rate 15 g ai/ha), 0 in assay [21] (application rate 30 g ai/ha) and 20 in assay [21] (application rate 60 g ai/ha).
